As usually defined, the Cmax is the peak of the concentration-time curve. The term IC50 denotes the concentration at which inhibition is half-maximal. A higher IC50 goes with weaker potency in that assay.

From US9334246B2, “Substituted triazines for malaria treatment and chemoprophylaxis” (The United States of America, as represented by the …, priority 2013, dated 2016) come the findings set out here.

Series [1] concerns P. falciparum W2. As to the kind of experiment: Malaria SYBR Green Fluorescence Assay, W2 strain. The class given is cell-based, Plasmodium falciparum. Particulars: for W2: SYBR Green Assay.
Series [2] relates to P. cynomolgi.
The subject of series [3] is P. falciparum C235. The experiment in a line: Malaria SYBR Green Fluorescence Assay, C235 strain. The class given is cell-based, Plasmodium falciparum. The following applies: for C235: SYBR Green Assay.
Series [4] addresses T1, hERG potassium ion channel (Homo sapiens, UniProt Q12809). As to the kind of experiment: hERG patch clamp assay (% inhibition at 10 μM). For orientation: hERG is a cardiac potassium channel; its block is linked to QT prolongation.
For series [5], the system named is P. berghei. As to the kind of experiment: Thompson Test, in vivo mouse malaria assay. On the set-up: species or system mice (ICR strain).
Series [6] deals with P. falciparum D6. As to the kind of experiment: Malaria SYBR Green Fluorescence Assay, D6 strain. The class given is cell-based, Plasmodium falciparum. Particulars: for D6: SYBR Green Assay.
The conditions of series [7]: in vivo.
The target in series [8] is T1, hERG potassium ion channel. The following applies: 10 μM.
The target of series [9] is hERG channel (Homo sapiens, UniProt Q12809).
Chain of hERG channel (Q12809 whole entry): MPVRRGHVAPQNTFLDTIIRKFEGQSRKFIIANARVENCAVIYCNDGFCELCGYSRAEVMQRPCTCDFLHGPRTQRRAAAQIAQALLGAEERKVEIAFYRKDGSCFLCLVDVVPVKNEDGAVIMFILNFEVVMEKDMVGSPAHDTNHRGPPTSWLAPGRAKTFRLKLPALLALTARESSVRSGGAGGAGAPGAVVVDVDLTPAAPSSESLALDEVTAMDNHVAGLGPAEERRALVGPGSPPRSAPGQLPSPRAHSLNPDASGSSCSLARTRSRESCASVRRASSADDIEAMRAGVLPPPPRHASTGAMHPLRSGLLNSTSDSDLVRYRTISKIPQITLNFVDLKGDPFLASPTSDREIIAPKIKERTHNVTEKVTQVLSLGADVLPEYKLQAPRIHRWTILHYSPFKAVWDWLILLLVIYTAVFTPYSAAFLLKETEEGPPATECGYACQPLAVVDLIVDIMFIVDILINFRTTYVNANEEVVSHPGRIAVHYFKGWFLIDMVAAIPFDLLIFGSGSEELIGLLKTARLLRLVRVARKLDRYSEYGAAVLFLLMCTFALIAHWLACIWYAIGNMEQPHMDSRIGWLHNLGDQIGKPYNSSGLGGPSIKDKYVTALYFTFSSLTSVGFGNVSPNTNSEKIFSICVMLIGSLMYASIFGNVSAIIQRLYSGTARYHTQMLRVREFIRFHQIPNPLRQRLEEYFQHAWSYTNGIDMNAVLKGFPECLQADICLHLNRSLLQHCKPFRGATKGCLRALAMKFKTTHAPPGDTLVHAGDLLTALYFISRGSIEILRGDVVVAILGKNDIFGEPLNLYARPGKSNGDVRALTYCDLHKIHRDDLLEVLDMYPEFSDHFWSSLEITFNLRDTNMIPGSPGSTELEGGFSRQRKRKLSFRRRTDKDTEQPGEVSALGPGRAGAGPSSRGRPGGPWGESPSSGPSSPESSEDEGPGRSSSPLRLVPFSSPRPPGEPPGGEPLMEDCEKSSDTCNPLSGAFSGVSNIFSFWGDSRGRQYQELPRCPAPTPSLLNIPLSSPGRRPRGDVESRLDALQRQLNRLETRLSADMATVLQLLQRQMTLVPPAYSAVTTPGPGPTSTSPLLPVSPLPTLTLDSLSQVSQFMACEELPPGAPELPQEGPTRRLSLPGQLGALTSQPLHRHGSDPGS
The subject of series [10] is drug resistant strains of P. falciparum. The experiment in a line: in vitro profiling against different drug resistant strains of P. falciparum. The class given is cell-based, Plasmodium falciparum.
Setting [11] is: % inhibition at 10 μM, patch clamp.

Read-outs that look alike come from different tables or passages of the source. Bounds are passed on as bounds.

T1 sequence (Q12809 whole entry): as above

“CC(C)(C)c1ccc(cc1)c2nc(nc(n2)C(Cl)(Cl)Cl)N3CC4CC3CN4 [Compound 721]”: the W2 in [1] came to 69 ng/mL. For the same molecule, the “Rhesus Results” value in series [2] (65 mg/kg once weekly) is recorded as “prophylaxis”; in series [2] (65 mg/kg/day × 7 days), “malaria cures”. Besides, the C235 in series [3] is reported as 126 ng/mL. In series [4] (hERG activity as % inhibition), this molecule displayed a hERG of 2%. For the same molecule, in series [5] ((80 × 3): 80 mg/kg for 3 days), the “In vivo Results Thompson Assay (n/N Cures or Suppressive)” value is listed as “(80 × 3) 2/5 Cures”. Also, in [6], the D6 is recorded as 142 ng/mL.
For “CC(CNc1nc(Nc2ccc(Cl)c(Cl)c2)nc(n1)C(Cl)(Cl)Cl)N(C)C [Compound 641]”, the “W2 (SYBR Green Assay IC50)” value in series [1] is 0.005 µg/mL. Moreover, the “Rhesus Results” value in series [2] (65 mg/kg once weekly) is “prophylaxis”; in series [2] (65 mg/kg/day × 7 days), “malaria cures”. The “malaria parasitemia, prophylactic drug, rhesus P. cynomolgi relapsing model” value in [2] (dosed once weekly (65 mg, PO)) is listed as “prevented malaria parasitemia”. The tolerability entry in series [2] (rhesus monkey, in vivo, 316 mg/kg) is listed as “well tolerated”. The same molecule returned a mouse half-life in series [7] (po, 80 mg/kg) of 8 h. In series [7] (mouse), this molecule had a Cmax of over 600 nM. Also, the “C235 (SYBR Green Assay IC50)” value in series [3] amounted to 0.013 µg/mL. Moreover, in [8], the “hERG (% inhibition)” value worked out at 117%. Besides, the “In vivo Results Thompson Assay (n/N Cures or Suppressive)” value in series [5] ((40 × 3): 40 mg/kg for 3 days) is 2/5; in [5] ((80 × 3): 80 mg/kg for 3 days), “(80 × 3) 5/5 Cures”. In addition, the “In vivo Results Thompson Assay (n/N Cures)” value in series [5] ((160 × 1): single 160 mg/kg PO dose) is reported as 5/5. In series [6], the “D6 (SYBR Green Assay IC50)” value was determined as 0.015 µg/mL. In [9], this molecule had an IC50 of 600 nM. The in vitro potency entry in [10] is recorded as “excellent in vitro potency”.
In turn, `CC(C)(N)CNc1nc(-c2ccc(C(Cl)(Cl)Cl)cc2)nc(C(Cl)(Cl)Cl)n1` [Compound 55] yielded a W2 in series [1] of 30 ng/mL. The “Rhesus Results” value is “prophylaxis” in [2] (65 mg/kg once weekly) and “malaria cures” in series [2] (65 mg/kg/day × 7 days). The C235 in series [3] is reported as 89 ng/mL. In series [4] (setting [11]), this molecule registered a hERG of 17%. Further, the “In vivo Results Thompson Assay (n/N Cures or Suppressive)” value in series [5] ((40 × 3): 40 mg/kg for 3 days) was 3/5; in series [5] ((80 × 3): 80 mg/kg for 3 days) it was 5/5. The molecule further showed a D6 in series [6] of 46 ng/mL.
On to `CN1CCN(c2nc(-c3ccc([S+](C)[O-])cc3)nc(C(Cl)(Cl)Cl)n2)CC1` (stereo not drawn) [Compound 72], for which the W2 in [1] is reported as 33 ng/mL. The molecule also gave a C235 in series [3] of 27 ng/mL. In series [4] (setting [11]), the hERG stood at 41%. The “In vivo Results Thompson Assay (n/N Cures or Suppressive)” value in series [5] ((80 × 3): 80 mg/kg for 3 days) is reported as “(80 × 3) Suppressive”. Moreover, the D6 in series [6] is on record as 33 ng/mL.
Consider `Cc1ccc(-c2nc(N3CCCNCC3)nc(C(Cl)(Cl)Cl)n2)cc1` [Compound 102], for which the W2 in series [1] turned out to be 44 ng/mL. This molecule also displayed a C235 in series [3] of 48 ng/mL. In [4] (setting [11]), the hERG was determined as 47%. For the same molecule, the “In vivo Results Thompson Assay (n/N Cures or Suppressive)” value in series [5] ((80 × 3): 80 mg/kg for 3 days) is “(80 × 3) Suppressive”. Besides, in series [6], the D6 is on record as 58 ng/mL.
“ClC(Cl)(Cl)c1nc(NCCCN2CCCC2)nc(Nc3ccc(cc3)n4cccn4)n1 [Compound 728]” came in with a W2 in series [1] of 27 ng/mL. The C235 in [3] is 79 ng/mL. This molecule yielded a hERG in series [4] (hERG activity as % inhibition) of 116%. Besides, the “In vivo Results Thompson Assay (n/N Cures or Suppressive)” value in [5] ((80 × 3): 80 mg/kg for 3 days) is given as “(80 × 3) Suppressive”. The molecule further gave a D6 in series [6] of 77 ng/mL.
As for “NC1CCN(CC1)c2nc(nc(n2)C(Cl)(Cl)Cl)c3ccc(cc3)C(Cl)(Cl)Cl [Compound 743]”, the W2 in [1] is 16 ng/mL. The C235 in series [3] is recorded as 14 ng/mL. This molecule came in with a hERG in series [4] (hERG activity as % inhibition) of 15%. Further, the entries for the “In vivo Results Thompson Assay (n/N Cures or Suppressive)” value in [5] ((40 × 3): 40 mg/kg for 3 days) and in [5] ((80 × 3): 80 mg/kg for 3 days) were “Suppressive” and “(80 × 3) 3/5 Cures; (40 × 3)”, respectively. In [6], the D6 turned out to be 22 ng/mL.
